Experimental data as given in ChEMBL document CHEMBL5291721, “A preclinical secondary pharmacology resource illuminates target-adverse drug reaction associations of marketed drugs” (Nat Commun, 2023).

What was measured:
Acetylcholinesterase = Acetylcholinesterase (Homo sapiens, UniProt P22303); type: functional
Thromboxane A2 receptor = target: T1, Thromboxane A2 receptor (Homo sapiens, UniProt P21731); type: functional, cell-based
T1 sequence (P21731 whole entry): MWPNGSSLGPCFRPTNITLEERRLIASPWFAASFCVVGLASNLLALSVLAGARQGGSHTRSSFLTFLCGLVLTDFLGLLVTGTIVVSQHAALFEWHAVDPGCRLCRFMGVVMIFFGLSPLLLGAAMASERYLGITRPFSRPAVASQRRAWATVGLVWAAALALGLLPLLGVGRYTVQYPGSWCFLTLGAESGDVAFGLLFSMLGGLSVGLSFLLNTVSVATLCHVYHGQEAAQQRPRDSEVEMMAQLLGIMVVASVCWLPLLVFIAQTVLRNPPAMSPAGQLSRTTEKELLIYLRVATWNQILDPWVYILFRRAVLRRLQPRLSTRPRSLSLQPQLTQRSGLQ

Prothrombin = Prothrombin (Homo sapiens, UniProt P00734); type: functional
[1] = target: T2, Alpha-1A adrenergic receptor (Homo sapiens, UniProt P35348); type: functional, cell-based
T2 sequence (P35348 whole entry): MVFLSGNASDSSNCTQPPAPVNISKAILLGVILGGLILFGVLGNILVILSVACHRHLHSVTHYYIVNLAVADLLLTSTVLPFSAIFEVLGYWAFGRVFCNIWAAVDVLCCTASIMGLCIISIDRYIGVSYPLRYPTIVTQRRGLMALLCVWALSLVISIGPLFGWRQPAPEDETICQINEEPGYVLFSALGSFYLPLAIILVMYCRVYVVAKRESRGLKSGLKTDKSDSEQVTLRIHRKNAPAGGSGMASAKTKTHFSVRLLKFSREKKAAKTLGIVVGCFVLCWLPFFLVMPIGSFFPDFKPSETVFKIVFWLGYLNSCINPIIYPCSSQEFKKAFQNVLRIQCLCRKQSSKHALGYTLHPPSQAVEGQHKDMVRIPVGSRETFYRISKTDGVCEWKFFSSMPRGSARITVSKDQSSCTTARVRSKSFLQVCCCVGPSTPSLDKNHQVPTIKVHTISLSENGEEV

[2] = target: Prostaglandin G/H synthase 1 (Homo sapiens, UniProt P23219); type: functional
Prostaglandin G/H synthase 1, sequence (P23219 whole entry): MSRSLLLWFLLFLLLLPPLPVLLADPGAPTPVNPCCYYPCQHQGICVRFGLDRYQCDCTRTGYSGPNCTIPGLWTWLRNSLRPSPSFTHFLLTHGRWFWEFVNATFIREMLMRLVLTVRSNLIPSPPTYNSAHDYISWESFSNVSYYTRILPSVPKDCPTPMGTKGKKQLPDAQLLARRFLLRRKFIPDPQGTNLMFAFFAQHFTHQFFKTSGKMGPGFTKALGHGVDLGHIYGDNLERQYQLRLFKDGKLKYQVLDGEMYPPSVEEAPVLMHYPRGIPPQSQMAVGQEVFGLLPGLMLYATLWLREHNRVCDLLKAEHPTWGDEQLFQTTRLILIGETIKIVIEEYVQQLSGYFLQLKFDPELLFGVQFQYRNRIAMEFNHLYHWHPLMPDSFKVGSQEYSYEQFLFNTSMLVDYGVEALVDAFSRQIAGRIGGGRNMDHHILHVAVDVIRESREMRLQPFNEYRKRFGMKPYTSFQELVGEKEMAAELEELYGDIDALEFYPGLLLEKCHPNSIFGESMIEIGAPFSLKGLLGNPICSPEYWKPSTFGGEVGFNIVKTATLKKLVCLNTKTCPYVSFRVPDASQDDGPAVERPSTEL

Adenosine receptor A3 = target: T3, Adenosine receptor A3 (Homo sapiens, UniProt P0DMS8)
T3 sequence (P0DMS8 whole entry): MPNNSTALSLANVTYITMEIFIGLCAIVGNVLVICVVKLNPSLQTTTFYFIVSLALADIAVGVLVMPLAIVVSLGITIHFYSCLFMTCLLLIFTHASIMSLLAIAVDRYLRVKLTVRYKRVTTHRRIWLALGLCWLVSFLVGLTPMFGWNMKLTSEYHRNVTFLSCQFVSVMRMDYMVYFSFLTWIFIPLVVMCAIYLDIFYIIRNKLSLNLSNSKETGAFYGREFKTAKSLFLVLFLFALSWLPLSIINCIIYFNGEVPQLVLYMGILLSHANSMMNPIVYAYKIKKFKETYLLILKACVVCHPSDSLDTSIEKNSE

Mu-type opioid receptor = Mu-type opioid receptor (Homo sapiens, UniProt P35372)
Mu-type opioid receptor, sequence (P35372 whole entry): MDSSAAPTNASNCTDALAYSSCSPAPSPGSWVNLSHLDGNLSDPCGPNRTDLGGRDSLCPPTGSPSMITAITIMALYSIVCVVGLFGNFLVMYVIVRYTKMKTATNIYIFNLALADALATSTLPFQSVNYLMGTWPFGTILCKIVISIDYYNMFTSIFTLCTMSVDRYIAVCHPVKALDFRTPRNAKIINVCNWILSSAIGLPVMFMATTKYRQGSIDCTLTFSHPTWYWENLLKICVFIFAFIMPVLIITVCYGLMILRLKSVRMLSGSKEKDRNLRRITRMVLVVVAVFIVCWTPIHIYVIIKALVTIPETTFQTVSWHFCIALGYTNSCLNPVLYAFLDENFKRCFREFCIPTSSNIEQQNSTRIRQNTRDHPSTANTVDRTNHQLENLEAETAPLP

D(1A) dopamine receptor = D(1A) dopamine receptor (Homo sapiens, UniProt P21728)
D(1A) dopamine receptor, sequence (P21728 whole entry): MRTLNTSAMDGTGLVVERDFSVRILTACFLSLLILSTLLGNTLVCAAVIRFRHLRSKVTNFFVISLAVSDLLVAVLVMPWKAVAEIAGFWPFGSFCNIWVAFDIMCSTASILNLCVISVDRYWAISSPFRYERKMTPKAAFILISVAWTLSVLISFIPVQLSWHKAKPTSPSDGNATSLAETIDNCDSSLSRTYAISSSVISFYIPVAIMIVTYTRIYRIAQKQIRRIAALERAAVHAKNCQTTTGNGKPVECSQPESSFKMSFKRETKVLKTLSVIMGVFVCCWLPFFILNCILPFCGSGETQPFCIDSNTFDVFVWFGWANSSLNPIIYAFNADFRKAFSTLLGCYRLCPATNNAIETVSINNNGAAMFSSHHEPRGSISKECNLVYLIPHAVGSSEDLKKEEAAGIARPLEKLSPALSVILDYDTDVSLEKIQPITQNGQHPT

Histamine H3 receptor = Histamine H3 receptor (Homo sapiens, UniProt Q9Y5N1)
Histamine H3 receptor, sequence (Q9Y5N1 whole entry): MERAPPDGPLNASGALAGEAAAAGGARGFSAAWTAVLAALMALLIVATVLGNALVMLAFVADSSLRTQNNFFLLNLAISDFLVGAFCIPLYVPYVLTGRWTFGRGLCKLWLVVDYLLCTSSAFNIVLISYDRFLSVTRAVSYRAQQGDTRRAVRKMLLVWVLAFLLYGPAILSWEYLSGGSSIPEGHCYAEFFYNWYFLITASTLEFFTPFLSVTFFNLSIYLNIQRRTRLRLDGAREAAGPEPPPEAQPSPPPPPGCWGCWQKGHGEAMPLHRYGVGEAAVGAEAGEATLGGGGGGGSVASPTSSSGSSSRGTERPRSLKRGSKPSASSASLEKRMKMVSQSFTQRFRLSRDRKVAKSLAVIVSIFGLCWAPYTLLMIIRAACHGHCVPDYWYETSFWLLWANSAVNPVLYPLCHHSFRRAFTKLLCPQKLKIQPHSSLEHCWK

[3] = target: T4, Muscarinic acetylcholine receptor M1 (Homo sapiens, UniProt P11229); type: functional, cell-based
T4 sequence (P11229 whole entry): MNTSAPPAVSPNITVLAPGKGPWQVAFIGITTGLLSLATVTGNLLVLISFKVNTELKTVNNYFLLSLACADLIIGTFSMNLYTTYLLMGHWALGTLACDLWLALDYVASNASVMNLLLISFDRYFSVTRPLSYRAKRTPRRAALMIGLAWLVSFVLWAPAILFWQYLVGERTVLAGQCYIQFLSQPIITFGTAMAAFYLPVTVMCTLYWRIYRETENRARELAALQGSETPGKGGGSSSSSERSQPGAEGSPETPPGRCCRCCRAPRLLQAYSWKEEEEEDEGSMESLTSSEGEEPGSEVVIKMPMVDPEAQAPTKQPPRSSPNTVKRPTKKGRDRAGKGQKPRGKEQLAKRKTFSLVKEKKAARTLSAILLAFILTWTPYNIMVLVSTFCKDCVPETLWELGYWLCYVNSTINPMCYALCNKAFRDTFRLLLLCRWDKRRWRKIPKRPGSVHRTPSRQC

Progesterone receptor = target: T5, Progesterone receptor (Homo sapiens, UniProt P06401)
T5 sequence (P06401 whole entry): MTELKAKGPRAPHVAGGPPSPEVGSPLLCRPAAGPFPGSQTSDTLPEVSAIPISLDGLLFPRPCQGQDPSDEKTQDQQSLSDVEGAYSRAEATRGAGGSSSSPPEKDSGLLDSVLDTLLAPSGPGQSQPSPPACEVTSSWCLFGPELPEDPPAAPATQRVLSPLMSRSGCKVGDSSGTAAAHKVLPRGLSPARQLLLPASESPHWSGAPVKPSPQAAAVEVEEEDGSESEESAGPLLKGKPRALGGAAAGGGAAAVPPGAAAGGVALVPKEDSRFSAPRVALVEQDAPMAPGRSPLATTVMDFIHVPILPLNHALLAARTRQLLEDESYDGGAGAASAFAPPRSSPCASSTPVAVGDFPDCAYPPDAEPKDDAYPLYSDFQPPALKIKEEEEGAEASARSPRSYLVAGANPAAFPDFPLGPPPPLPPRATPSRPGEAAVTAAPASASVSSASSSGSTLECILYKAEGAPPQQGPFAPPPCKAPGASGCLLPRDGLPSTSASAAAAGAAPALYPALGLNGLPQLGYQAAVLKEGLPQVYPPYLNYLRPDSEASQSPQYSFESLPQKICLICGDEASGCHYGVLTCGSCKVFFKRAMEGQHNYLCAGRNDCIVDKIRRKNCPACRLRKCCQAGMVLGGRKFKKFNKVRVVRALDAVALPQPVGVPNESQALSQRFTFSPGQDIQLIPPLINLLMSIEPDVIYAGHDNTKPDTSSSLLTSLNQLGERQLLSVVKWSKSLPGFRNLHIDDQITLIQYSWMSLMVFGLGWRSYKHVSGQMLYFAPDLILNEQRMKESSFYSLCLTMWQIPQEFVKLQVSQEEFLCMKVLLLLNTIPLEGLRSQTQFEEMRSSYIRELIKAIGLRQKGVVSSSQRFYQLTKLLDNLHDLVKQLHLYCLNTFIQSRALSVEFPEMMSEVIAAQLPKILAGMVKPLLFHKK

[4] = target: Sodium-dependent noradrenaline transporter (Homo sapiens, UniProt P23975)
Sodium-dependent noradrenaline transporter, sequence (P23975 whole entry): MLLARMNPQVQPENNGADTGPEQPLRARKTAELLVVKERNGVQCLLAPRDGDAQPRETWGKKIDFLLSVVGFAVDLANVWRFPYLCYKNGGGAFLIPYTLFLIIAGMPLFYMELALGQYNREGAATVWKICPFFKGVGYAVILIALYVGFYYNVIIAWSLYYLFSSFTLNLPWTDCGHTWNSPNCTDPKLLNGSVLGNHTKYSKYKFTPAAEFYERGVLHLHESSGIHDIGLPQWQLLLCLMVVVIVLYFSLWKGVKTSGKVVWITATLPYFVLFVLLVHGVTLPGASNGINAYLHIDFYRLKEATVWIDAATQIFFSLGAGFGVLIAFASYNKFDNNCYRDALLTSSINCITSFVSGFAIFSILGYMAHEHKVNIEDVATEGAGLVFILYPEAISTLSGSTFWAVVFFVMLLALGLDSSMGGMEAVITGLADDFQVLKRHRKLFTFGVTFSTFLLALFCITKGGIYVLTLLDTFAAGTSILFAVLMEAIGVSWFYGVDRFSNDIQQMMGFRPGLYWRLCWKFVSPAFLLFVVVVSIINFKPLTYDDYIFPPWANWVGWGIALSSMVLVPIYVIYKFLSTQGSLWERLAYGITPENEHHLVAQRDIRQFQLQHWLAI
Also: assay procedure not described here.

Acetylcholinesterase, sequence (P22303 whole entry): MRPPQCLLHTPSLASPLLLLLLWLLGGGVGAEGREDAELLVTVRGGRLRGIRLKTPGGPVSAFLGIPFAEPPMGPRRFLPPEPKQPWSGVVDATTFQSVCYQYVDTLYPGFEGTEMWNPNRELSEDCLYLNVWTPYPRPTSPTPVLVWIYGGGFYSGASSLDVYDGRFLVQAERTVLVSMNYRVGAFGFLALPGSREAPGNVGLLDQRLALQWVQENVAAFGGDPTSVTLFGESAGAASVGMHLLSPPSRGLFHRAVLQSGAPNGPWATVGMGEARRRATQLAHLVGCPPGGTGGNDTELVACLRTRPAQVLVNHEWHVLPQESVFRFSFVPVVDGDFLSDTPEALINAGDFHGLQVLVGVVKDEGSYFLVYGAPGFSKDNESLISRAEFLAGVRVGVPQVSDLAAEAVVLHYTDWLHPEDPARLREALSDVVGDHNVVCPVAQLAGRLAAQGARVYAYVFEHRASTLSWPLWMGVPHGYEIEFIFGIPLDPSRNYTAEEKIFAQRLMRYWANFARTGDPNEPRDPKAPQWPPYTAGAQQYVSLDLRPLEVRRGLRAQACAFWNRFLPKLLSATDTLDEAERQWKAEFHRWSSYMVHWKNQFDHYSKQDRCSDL

Row | SMILES | AC50 (Acetylcholinesterase) | AC50 (Thromboxane A2 receptor) | AC50 (Prothrombin) | AC50 [1] | AC50 [2] | AC50 (Adenosine receptor A3) | AC50 (Mu-type opioid receptor) | AC50 (D(1A) dopamine receptor) | AC50 (Histamine H3 receptor) | AC50 [3] | AC50 (Progesterone receptor) | AC50 [4]
1 | Cc1ccccc1OCC(O)CO (stereo not drawn) [MEPHENESIN] | > 30 µM | > 30 µM | > 30 µM | > 30 µM | > 30 µM | > 30 µM | > 30 µM | > 30 µM | > 30 µM | > 30 µM | > 30 µM | > 30 µM
2 | CCN(CC)CCc1nc(-c2ccccc2)no1 [OXOLAMINE] | > 30 µM | > 30 µM | > 30 µM | > 30 µM | > 30 µM | > 30 µM | > 30 µM | > 30 µM | 23.9 µM | > 30 µM | > 30 µM | > 30 µM
3 | C[N+]1(CCCCC[N+]2(C)CCCC2)CCCC1 [PENTOLINIUM] | > 30 µM | > 30 µM | > 30 µM | > 30 µM | > 30 µM | > 30 µM | > 30 µM | > 30 µM | > 30 µM | > 30 µM | > 30 µM | > 30 µM
4 | O=C(O)c1ccccc1C(=O)Nc1ccc(S(=O)(=O)Nc2nccs2)cc1 [PHTHALYLSULFATHIAZOLE] | > 30 µM | > 30 µM | > 30 µM | > 30 µM | 20 µM | > 30 µM | > 30 µM | > 30 µM | > 30 µM | > 30 µM | > 30 µM | > 30 µM
5 | CC(C)(C)C(=O)OCOC(=O)[C@@H]1N2C(=O)[C@@H](NC(=O)[C@H](N)c3ccccc3)[C@H]2SC1(C)C [PIVAMPICILLIN] | > 30 µM | > 30 µM | > 30 µM | > 30 µM | > 30 µM | > 30 µM | > 30 µM | > 30 µM | > 30 µM | 23 µM | > 30 µM | > 30 µM
6 | O=[N+]([O-])c1cn2c(n1)OC[C@@H](OCc1ccc(OC(F)(F)F)cc1)C2 [PRETOMANID] | > 30 µM | > 30 µM | > 30 µM | > 10 µM | > 30 µM | > 30 µM | > 30 µM | > 30 µM | > 30 µM | 10.6 µM | > 30 µM | > 30 µM
7 | OC(CCN1CCCCC1)(c1ccccc1)c1ccccc1 [PRIDINOL] | > 30 µM | > 30 µM | > 30 µM | > 30 µM | > 30 µM | > 30 µM | 19.4 µM | > 30 µM | > 30 µM | 0.0824 µM | > 30 µM | > 30 µM
8 | O=C(Oc1ccc2c(c1)CCCN2C(=O)C(Cl)Cl)c1ccco1 [QUINFAMIDE] | > 30 µM | > 30 µM | > 30 µM | > 30 µM | > 30 µM | 25.6 µM | > 30 µM | > 30 µM | > 30 µM | 15.4 µM | > 30 µM | > 30 µM
9 | CC(C)COC(=O)OCN1C(=O)CN(CCN2CC(=O)N(COC(=O)OCC(C)C)C(=O)C2)CC1=O [SOBUZOXANE] | > 30 µM | > 30 µM | > 30 µM | > 30 µM | 29.8 µM | > 30 µM | > 30 µM | > 30 µM | > 30 µM | > 30 µM | > 30 µM | > 30 µM
10 | Cc1cc(NS(=O)(=O)c2ccc(N)cc2)nc(C)n1 [SULFISOMIDINE] | > 30 µM | > 30 µM | > 30 µM | > 30 µM | > 30 µM | > 30 µM | > 30 µM | > 30 µM | > 30 µM | > 30 µM | > 30 µM | > 30 µM
11 | OB1OCc2cc(F)ccc21 [TAVABOROLE] | > 30 µM | > 30 µM | > 30 µM | > 30 µM | > 30 µM | > 30 µM | > 30 µM | > 30 µM | > 30 µM | > 30 µM | > 30 µM | > 30 µM
12 | CC(C)(C)NCC(O)COc1cccc2c1SCCC2 (stereo not drawn) [TERTATOLOL] | > 30 µM | > 30 µM | > 30 µM | > 30 µM | > 30 µM | > 30 µM | > 30 µM | > 30 µM | > 30 µM | > 30 µM | > 30 µM | 29.6 µM
13 | Nc1ccc(S(=O)(=O)c2cnc(N)s2)cc1 [THIAZOLSULFONE] | > 30 µM | > 30 µM | > 30 µM | > 30 µM | > 30 µM | 13.8 µM | > 30 µM | > 30 µM | > 30 µM | > 30 µM | > 30 µM | > 30 µM
14 | CC(CNC(=O)c1ccccc1)C(=O)OCC(=O)[C@@]12OC(C)(C)O[C@@H]1C[C@H]1[C@@H]3CCC4=CC(=O)C=C[C@]4(C)[C@@]3(F)[C@@H](O)C[C@@]12C (stereo partly drawn) [TRIAMCINOLONE BENETONIDE] | > 30 µM | > 30 µM | > 30 µM | > 30 µM | > 30 µM | > 30 µM | > 30 µM | > 30 µM | > 30 µM | > 30 µM | > 30 µM | > 30 µM
